From US11534415B2, “Use of colchicine to inhibit tumor growth and metastases” (Murray and Poole Enterprises, LTD., priority 2018, dated 2022)

What was measured:
[1] = test system: subjects with a first episode of acute pericarditis; settings: at 18 months; aspirin alone or plus colchicine 1.0 to 2.0 mg first day then 0.5 to 1.0 mg/day for 3 months; p=0.004; cited from earlier work
[2] = test system: subjects with a first episode of recurrent pericarditis; settings: actual rates at 18 months; aspirin alone or plus colchicine 1.0-2.0 mg first day then 0.5-1.0 mg/d for 6 months; cited from earlier work
[3] = test system: commonly used tumor models; assay: Example 5: anti-tumor effects of colchicine in animals (tumor models); assay type: in vivo; settings: vs placebo control group
Protocol: A sufficient amount of specimen of a suitable animal species are included in this study utilizing commonly used tumor models. A therapeutically effective amount of colchicine is administered to the test animals. Placebo is administered to a control group. Tumor growth is induced in all animals.

[4] = test system: commonly used tumor cell lines with or without combination with cultivated PBMCs; assay: Example 6: anti-tumor effects of colchicine in vitro; assay type: cell-based; settings: incubation with colchicine and/or cultivation with pretreated PBMCs
Excerpt: A suitable in vitro model for studying the anti-tumor effects of drugs is utilized for this test. Such a test may include commonly used tumor cell lines with or without combination with cultivated PBMCs.

[5] = test system: subjects with stable coronary disease; settings: colchicine 0.5 mg/day in addition to statins and other standard secondary prevention therapies; median of 3 years; cited from earlier work
[6] = test system: human lipopolysaccharide (LPS) stimulated peripheral blood mononuclear cells (PBMC); settings: colchicine added to LPS stimulated PBMC; cited from earlier work
[7] = test system: co-cultures of PBMC with either HT-29 or RKO human colon cancer cells; settings: co-culture with HT-29 or RKO cells; cited from earlier work
[8] = test system: subjects with cancer or in risk of cancer; assay: Example 4: randomized observer blinded end-point trial of sustained release colchicine added to standard anti-cancer therapies; settings: long-term low dose sustained release colchicine 0.5 mg/day vs standard therapy alone
Protocol: To assess the therapeutic effects of a sustained release formulation in subjects with or in subjects with an increased risk of cancer, a prospective randomized observer blinded end-point trial was conducted to determine whether adding 0.5 mg/day of colchicine to standard anti-cancer therapies inhibits, delays, or reduces tumor growth or metastases in a cancer subject.
A sufficient amount of subjects with cancer or in risk of cancer are randomized to long-term low dose sustained release colchicine or to standard therapy alone.

## CC(=O)Oc1ccccc1C(=O)O [aspirin]
[1]
  recurrence rate: 32.3%
[2]
  recurrence rate: 50.6%

## COc1cc2c(c(OC)c1OC)-c1ccc(OC)c(=O)cc1[C@@H](NC(C)=O)CC2 [colchicine, (−)-N-[(7S, 12aS)-1,2,3,10-tetramethoxy-9-oxo-5,6,7,9-tetrahydrobenzo[a]heptalen-7-yl]-acetamide]
[3]
  tumor growth: tumor growth is prevented and/or reduced
[4]
  growth of tumor cell lines: inhibits or reduces growth of tumor cell lines
[1]
  recurrence rate: 10.7%
[2]
  recurrence rate: 24.0%
[5]
  prevention of cardiovascular events: appeared effective for the prevention of cardiovascular events
[6]
  IL-1β release: increased
  TNF-α release: decreased
[7]
  IL-1β production by cancer cells-stimulated PBMC: promoted cancer cells-stimulated PBMC to produce IL-1β
  release of TNF-α and IL-10: inhibit the release of tumor necrosis factor (TNF)-α and IL-10
[8]
  cancer incidence and mortality: significantly lower cancer incidence and mortality
